Where two headings read alike, the source gives them in different places.
Legend:
[1] = Urine pharmacokinetics (fraction of dose excreted renally); format: in vivo, human
Method: (§1) Plasma and urine samples were analyzed to measure concentrations of baxdrostat and its primary metabolite (CIN-107-M), aldosterone and its precursors, cortisol and its precursor, and ACTH using a validated liquid chromatography tandem mass spectrometry method (LC-MS/MS). The quantifiable ranges for both baxdrostat and its metabolite CIN-107-M in plasma and urine were 0.05 to 50 ng/mL (low range) and 5 to 2500 ng/mL (high range), using baxdrostat-d5 and CIN-107-M-d3, respectively, as the internal standards. Plasma samples were extracted by protein precipitation with methanol, followed by analysis by LC-MS/MS with electrospray ionization in positive mode and multiple reaction monitoring. All scheduled study-related laboratory tests were performed by Medpace Reference Laboratories (Cincinnati, OH, USA), Medpace Bioanalytical Laboratories (Cincinnati, OH, USA), Mercy Health—West Hospital Laboratory (Cincinnati, OH, USA), or Laboratory Corporation of America (Dublin, OH, USA).
The cumulative amount of drug excreted in urine on day 1 (Ae,D1) and day 10 (Ae,D10), fraction of dose excreted renally on day 1 (Fe,D1) and day 10 (Fe,D10), and renal clearance on day 1 (CLR,D1) and day 10 (CLR,D10) composed single-dose urine PK parameters.

[2] = Plasma pharmacokinetics of baxdrostat and CIN-107-M, multiple ascending dose phase 1 study; format: in vivo, human; details: for RAUC (accumulation ratio based on AUC) / RCmax (accumulation ratio based on Cmax): day 10 vs day 1, mean ± SD; for Cmax / Tmax / Vd/F / half-life: human, plasma, po; for Vd/F: read-out: Vss/F
Method: Subjects were randomized in a 3:1 ratio to baxdrostat or placebo once daily for 10 days as follows: • Cohort 1: 2.5 mg baxdrostat or matching placebo on a low-salt diet, 9 subjects receiving baxdrostat and 3 subjects receiving placebo • Cohort 2: 5.0 mg baxdrostat or matching placebo on a low-salt diet, 9 subjects receiving baxdrostat and 3 subjects receiving placebo • Cohort 3: 1.5 mg baxdrostat or matching placebo on a normal-salt diet, 9 subjects receiving baxdrostat and 3 subjects receiving placebo • Cohort 4: 2.5 mg baxdrostat or matching placebo on a normal-salt diet, 6 subjects receiving baxdrostat and 2 subjects receiving placebo • Cohort 5: 0.5 mg baxdrostat or matching placebo on a normal-salt diet, 9 subjects receiving baxdrostat and 3 subjects receiving placebo.
The study drug was a 2 mg/mL baxdrostat oral solution and matching oral placebo solution. Subjects received a single dose of oral solution of baxdrostat or placebo on the mornings of days 1 through 10 at 8:00 a.m. (± 2 h). On days 1 and 10, the dose was given following an overnight fast (of at least 8 h), and subjects remained fasted for at least 4 h after dosing on these days. On all other days, subjects fasted for a minimum of 2 h before and 2 h after dosing.
as §1
Blood samples were collected prior to and after dosing on days 1 and 10 for measurement of plasma baxdrostat and CIN-107-M concentrations to characterize single-dose and steady-state PK. Pharmacokinetic parameters were calculated by standard noncompartmental methods using Phoenix WinNonlin™ (Certara, Inc., Princeton, NJ) and verified with SAS (SAS Institute, Inc., Cary, NC) software. […] Steady-state plasma PK parameters consisted of accumulation ratio based on Cmax (RCmax), accumulation ratio based on AUC (RAUC), apparent first-order terminal elimination rate constant (λz), terminal phase elimination half-life (t1/2), apparent plasma clearance (CLss/F), and apparent volume of distribution (Vss/F).

[3] = 0.5 mg oral once daily, normal-salt diet, day 10, mean ± SD
[4] = 0.5 mg oral once daily, normal-salt diet
[5] = 1.5 mg oral once daily, normal-salt diet, day 10, mean ± SD
[6] = 1.5 mg oral once daily, normal-salt diet
[7] = 2.5 mg oral once daily, low-salt diet, day 10, mean ± SD
[8] = 2.5 mg oral once daily, low-salt diet
[9] = 2.5 mg oral once daily, normal-salt diet, day 10, mean ± SD, n=5
[10] = 2.5 mg oral once daily, normal-salt diet, n=5
[11] = 5.0 mg oral once daily, low-salt diet, day 10, mean ± SD
[12] = 5.0 mg oral once daily, low-salt diet

Which “baxdrostat dose recovered unchanged in the urine” value ([1]; day 1) does the source give for `CCC(=O)N[C@@H]1CCCc2c(-c3ccc4c(c3)CCC(=O)N4C)cncc21` [baxdrostat] here?
The value was “Approximately 7%”.

What about the “baxdrostat dose recovered unchanged in the urine” value ([1]; steady state (day 10)) of the same compound?
The value was ~ 32%.

And the AUC0-24hr ([2]; 0.5 mg oral once daily, normal-salt diet, day 1, mean ± SD)?
Its AUC0-24hr is 79.47 ± 17.34 h‧ng/mL.

And the AUC0-tau [2, 3]?
The AUC0-tau was 155.19 ± 35.70 h‧ng/mL.

And the CLss/F [2, 3]?
Its CLss/F is 3.42 ± 1.01 L/h.

And the “RAUC (accumulation ratio based on AUC)” value [2, 4]?
Its value is 1.96 ± 0.27.

What about the “RCmax (accumulation ratio based on Cmax)” value [2, 4] of the same compound?
The value was 1.83 ± 0.26.

What about the AUC0-24hr ([2]; 1.5 mg oral once daily, normal-salt diet, day 1, mean ± SD) of the same compound?
Its AUC0-24hr is 205.31 ± 36.74 h‧ng/mL.

And the AUC0-tau [2, 5]?
The AUC0-tau was 479.67 ± 138.21 h‧ng/mL.

What about the CLss/F [2, 5] of the same compound?
The CLss/F was 3.35 ± 0.92 L/h.

What about the “RAUC (accumulation ratio based on AUC)” value [2, 6] of the same compound?
The value was 2.31 ± 0.32.

And the “RCmax (accumulation ratio based on Cmax)” value [2, 6]?
Its value is 2.13 ± 0.24.

What about the AUC0-24hr ([2]; 2.5 mg oral once daily, low-salt diet, day 1, mean ± SD) of the same compound?
Its AUC0-24hr is 365.79 ± 65.51 h‧ng/mL.

What about the AUC0-tau [2, 7] of the same compound?
The AUC0-tau was 782.99 ± 143.02 h‧ng/mL.

What about the CLss/F [2, 7] of the same compound?
Its CLss/F is 3.28 ± 0.53 L/h.

What about the “RAUC (accumulation ratio based on AUC)” value [2, 8] of the same compound?
Its value is 2.15 ± 0.16.

What about the “RCmax (accumulation ratio based on Cmax)” value [2, 8] of the same compound?
Its value is 1.97 ± 0.30.

And the AUC0-24hr ([2]; 2.5 mg oral once daily, normal-salt diet, day 1, mean ± SD)?
Its AUC0-24hr is 343.98 ± 92.44 h‧ng/mL.

And the AUC0-tau [2, 9]?
Its AUC0-tau is 676.51 ± 343.78 h‧ng/mL.

What about the CLss/F [2, 9] of the same compound?
The CLss/F was 4.32 ± 1.59 L/h.

And the “RAUC (accumulation ratio based on AUC)” value [2, 10]?
Its value is 1.99 ± 0.45.

And the “RCmax (accumulation ratio based on Cmax)” value [2, 10]?
Its value is 1.71 ± 0.58.

And the AUC0-24hr ([2]; 5.0 mg oral once daily, low-salt diet, day 1, mean ± SD)?
The AUC0-24hr was 657.85 ± 137.40 h‧ng/mL.

What about the AUC0-tau [2, 11] of the same compound?
The AUC0-tau was 1659.41 ± 440.51 h‧ng/mL.

What about the CLss/F [2, 11] of the same compound?
The CLss/F was 3.21 ± 0.84 L/h.

And the “RAUC (accumulation ratio based on AUC)” value [2, 12]?
The value was 2.51 ± 0.26.

And the “RCmax (accumulation ratio based on Cmax)” value [2, 12]?
Its value is 2.42 ± 0.33.

And the “dose proportionality of Cmax and AUC (power model, Hummel criteria)” value ([2]; day 1 (Cmax, AUC0-24 h) and day 10 (Cmax, AUC0-tau, AUC0-t))?
Its value is “proportional increase”.

What about the Cmax ([2]; 0.5 mg, 0.5 mg oral once daily, normal-salt diet, day 1, mean ± SD, n=9, read-out: Cmax,D1) of the same compound?
Its Cmax is 5.36 ± 1.25 ng/mL.

And the Tmax ([2]; 0.5 mg, 0.5 mg oral once daily, normal-salt diet, day 1, read-out: Tmax,D1, median (min, max))?
The Tmax was 2 h.

What about the Cmax ([2]; 0.5 mg, 0.5 mg oral once daily, normal-salt diet, day 10, mean ± SD, read-out: Cmax,D10) of the same compound?
Its Cmax is 9.72 ± 2.27 ng/mL.

What about the Vd/F ([2]; 0.5 mg, 0.5 mg oral once daily, normal-salt diet, day 10, mean ± SD) of the same compound?
Its Vd/F is 152 ± 44.5 L.

And the half-life ([2]; 0.5 mg, 0.5 mg oral once daily, normal-salt diet, day 10, mean ± SD, read-out: t1/2 (converted))?
The half-life was 31.2 ± 5.8 h.

And the Tmax ([2]; 0.5 mg, 0.5 mg oral once daily, normal-salt diet, day 10, read-out: Tmax,D10, median (min, max))?
Its Tmax is 2 h.

And the Cmax ([2]; 1.5 mg, 1.5 mg oral once daily, normal-salt diet, day 1, mean ± SD, n=9, read-out: Cmax,D1)?
The Cmax was 14 ± 2.24 ng/mL.

What about the Tmax ([2]; 1.5 mg, 1.5 mg oral once daily, normal-salt diet, day 1, read-out: Tmax,D1, median (min, max)) of the same compound?
Its Tmax is 2.5 h.

And the Cmax ([2]; 1.5 mg, 1.5 mg oral once daily, normal-salt diet, day 10, mean ± SD, read-out: Cmax,D10)?
The Cmax was 29.9 ± 6.1 ng/mL.

And the Vd/F ([2]; 1.5 mg, 1.5 mg oral once daily, normal-salt diet, day 10, mean ± SD)?
The Vd/F was 137 ± 15.8 L.

And the half-life ([2]; 1.5 mg, 1.5 mg oral once daily, normal-salt diet, day 10, mean ± SD, read-out: t1/2 (converted))?
The half-life was 29.9 ± 7.71 h.

And the Tmax ([2]; 1.5 mg, 1.5 mg oral once daily, normal-salt diet, day 10, read-out: Tmax,D10, median (min, max))?
Its Tmax is 2.5 h.

What about the Cmax ([2]; 2.5 mg, 2.5 mg oral once daily, low-salt diet, day 1, mean ± SD, n=9, read-out: Cmax,D1) of the same compound?
The Cmax was 28.1 ± 5.9 ng/mL.

What about the Tmax ([2]; 2.5 mg, 2.5 mg oral once daily, low-salt diet, day 1, read-out: Tmax,D1, median (min, max)) of the same compound?
The Tmax was 3 h.

And the Cmax ([2]; 2.5 mg, 2.5 mg oral once daily, low-salt diet, day 10, mean ± SD, read-out: Cmax,D10)?
Its Cmax is 54 ± 7.56 ng/mL.

And the Vd/F ([2]; 2.5 mg, 2.5 mg oral once daily, low-salt diet, day 10, mean ± SD)?
Its Vd/F is 135 ± 36.7 L.

What about the half-life ([2]; 2.5 mg, 2.5 mg oral once daily, low-salt diet, day 10, mean ± SD, read-out: t1/2 (converted)) of the same compound?
Its half-life is 28.4 ± 4.75 h.

And the Tmax ([2]; 2.5 mg, 2.5 mg oral once daily, low-salt diet, day 10, read-out: Tmax,D10, median (min, max))?
The Tmax was 2 h.

And the Cmax ([2]; 2.5 mg, 2.5 mg oral once daily, normal-salt diet, day 1, mean ± SD, n=6, read-out: Cmax,D1)?
Its Cmax is 26.2 ± 4.76 ng/mL.

What about the Tmax ([2]; 2.5 mg, 2.5 mg oral once daily, normal-salt diet, day 1, read-out: Tmax,D1, median (min, max)) of the same compound?
The Tmax was 3 h.

And the Cmax ([2]; 2.5 mg, 2.5 mg oral once daily, normal-salt diet, day 10, mean ± SD, n=5, read-out: Cmax,D10)?
The Cmax was 43.9 ± 18.7 ng/mL.

And the Vd/F ([2]; 2.5 mg, 2.5 mg oral once daily, normal-salt diet, day 10, mean ± SD, n=5)?
The Vd/F was 150 ± 42.4 L.

What about the half-life ([2]; 2.5 mg, 2.5 mg oral once daily, normal-salt diet, day 10, mean ± SD, n=5, read-out: t1/2 (converted)) of the same compound?
The half-life was 25.6 ± 5.95 h.

And the Tmax ([2]; 2.5 mg, 2.5 mg oral once daily, normal-salt diet, day 10, n=5, read-out: Tmax,D10, median (min, max))?
The Tmax was 3 h.

And the Cmax ([2]; 5 mg, 5.0 mg oral once daily, low-salt diet, day 1, mean ± SD, n=9, read-out: Cmax,D1)?
The Cmax was 47.3 ± 12.3 ng/mL.

And the Tmax ([2]; 5 mg, 5.0 mg oral once daily, low-salt diet, day 1, read-out: Tmax,D1, median (min, max))?
The Tmax was 3.02 h.

What about the Cmax ([2]; 5 mg, 5.0 mg oral once daily, low-salt diet, day 10, mean ± SD, read-out: Cmax,D10) of the same compound?
Its Cmax is 113 ± 25.9 ng/mL.

And the Vd/F ([2]; 5 mg, 5.0 mg oral once daily, low-salt diet, day 10, mean ± SD)?
Its Vd/F is 134 ± 42 L.

What about the half-life ([2]; 5 mg, 5.0 mg oral once daily, low-salt diet, day 10, mean ± SD, read-out: t1/2 (converted)) of the same compound?
The half-life was 29.4 ± 6.47 h.

And the Tmax ([2]; 5 mg, 5.0 mg oral once daily, low-salt diet, day 10, read-out: Tmax,D10, median (min, max))?
The Tmax was 3 h.

What about the Tmax ([2]; across doses 0.5-5.0 mg oral once daily, read-out: median Tmax (time to peak plasma concentration after dosing)) of the same compound?
Its Tmax is at most 4 h.

What about the half-life ([2]; range across doses 0.5-5.0 mg oral once daily for 10 days, read-out: mean t1/2) of the same compound?
Its half-life is 26 to 31 h.
